Results reported in paper PMC4467398, “Preclinical antitumor activity of ST7612AA1: a new oral thiol-based histone deacetylase (HDAC) inhibitor” (Oncotarget, 2014).

System: DOHH2 and TMD8 DLBCL cells
Experiment: Gene expression profiling (HumanHT-12 v4 BeadChip, limma), ST7612AA1 300 nM 8 hrs vs DMSO
Assay type: cell-based, human
[1] = 300 nM, 8 hours, fold change > 1.5, adjusted p-value < 0.005

## CC(=O)SCCCCC[C@H](NC(=O)[C@H]1CCC(=O)N1)C(=O)Nc1ccccc1 [ST7612AA1]
300 nM 8 hrs vs DMSO
  log ratio YPEL5 (probe ILMN_1711069): 6.99E-01
  log ratio YRDC (ILMN_2061732): -8.81E-01
  log ratio ZBTB42 (ILMN_3239445): 6.62E-01
  log ratio ZDHHC8 (probe ILMN_1789492): 8.85E-01
  log ratio ZFP161 (ILMN_1772522): -5.98E-01
  log ratio ZFX (ILMN_1687484): -6.10E-01
  log ratio ZMAT3 (ILMN_1654262): 5.95E-01
  log ratio ZMYND11 (ILMN_1754234): -1.27E+00
  log ratio ZNF385A (ILMN_1786722): 6.67E-01
  log ratio ZNF532 (ILMN_1731358): -8.77E-01
  log ratio ZNF689 (ILMN_1759008): -8.10E-01
  log ratio ZNF692 (ILMN_1800750): -5.98E-01
  log ratio ZNF775 (probe ILMN_1691702): 7.39E-01
  log ratio ZNF791 (ILMN_1758105): 6.65E-01
  log ratio ZNHIT1 (ILMN_1741491): 6.13E-01
  log ratio ZNRD1 (ILMN_1692486): -8.14E-01
  log ratio ZNRD1 (ILMN_2398587): -8.04E-01
  log ratio ZSCAN16 (ILMN_1809566): 6.84E-01
  log ratio ZZZ3 (ILMN_1653618): -7.87E-01
  log ratio probe ILMN_1862217 (no symbol): 6.82E-01
  log ratio probe ILMN_1865056 (no symbol): 5.95E-01
  log ratio probe ILMN_1880086 (no symbol): 6.47E-01
  log ratio probe ILMN_1886515 (no symbol given): -8.79E-01
[1]
  number of genes down-regulated: 563 genes
  number of genes up-regulated: 674 genes
2000-08-31 ILMN_1776157
  AveExpr.ST7612: 9.23E-01
  log ratio: 9.23E-01
ABHD8 ILMN_1712707
  AveExpr.ST7612: 9.18E-01
  log ratio: 9.18E-01
ACBD7 ILMN_1726388
  AveExpr.ST7612: 1.07E+00
  log ratio: 1.07E+00
ADRB2 ILMN_1695590
  AveExpr.ST7612: 1.02E+00
  log ratio: 1.02E+00
ANG ILMN_1760727
  AveExpr.ST7612: 1.06E+00
  log ratio: 1.06E+00
ANKRD13A ILMN_1689908
  AveExpr.ST7612: 1.03E+00
  log ratio: 1.03E+00
ATP6V0D1 ILMN_1795826
  AveExpr.ST7612: 1.00E+00
  log ratio: 1.00E+00
ATP6V1A ILMN_1711516
  AveExpr.ST7612: 9.54E-01
  log ratio: 9.54E-01
BAG3 ILMN_1659766
  AveExpr.ST7612: 1.06E+00
  log ratio: 1.06E+00
BLVRA ILMN_1691436
  AveExpr.ST7612: 1.07E+00
  log ratio: 1.07E+00
BMP6 ILMN_1747650
  AveExpr.ST7612: 1.06E+00
  log ratio: 1.06E+00
C9orf95 ILMN_1674650
  AveExpr.ST7612: 9.57E-01
  log ratio: 9.57E-01
C16orf93 ILMN_2179726
  AveExpr.ST7612: 9.06E-01
  log ratio: 9.06E-01
CA2 ILMN_1662795
  AveExpr.ST7612: 1.03E+00
  log ratio: 1.03E+00
CBLB ILMN_1685580
  AveExpr.ST7612: 9.03E-01
  log ratio: 9.03E-01
CLEC16A ILMN_1781752
  AveExpr.ST7612: 1.06E+00
  log ratio: 1.06E+00
CPNE3 ILMN_1773576
  AveExpr.ST7612: 9.17E-01
  log ratio: 9.17E-01
CRIP2 ILMN_1694432
  AveExpr.ST7612: 1.09E+00
  log ratio: 1.09E+00
DENND5A ILMN_1785356
  AveExpr.ST7612: 1.07E+00
  log ratio: 1.07E+00
DENND5A ILMN_3245413
  AveExpr.ST7612: 1.02E+00
  log ratio: 1.02E+00
DNMT3B ILMN_2328972
  AveExpr.ST7612: 1.03E+00
  log ratio: 1.03E+00
EFNA1 ILMN_2371055
  AveExpr.ST7612: 1.05E+00
  log ratio: 1.05E+00
EXTL2 ILMN_1797950
  AveExpr.ST7612: 1.08E+00
  log ratio: 1.08E+00
FAM46C ILMN_1713266
  AveExpr.ST7612: 1.07E+00
  log ratio: 1.07E+00
FAM89B ILMN_1804117
  AveExpr.ST7612: 1.06E+00
  log ratio: 1.06E+00
